Data on 18 compounds can be found in US9241487B2, “Pyrimidine derivatives and use thereof as pesticides” (BAYER INTELLECTUAL PROPERTY GMBH, priority 2010, dated 2016).

The subject of data set [1] is Sphaerotheca fuliginea. Briefly: Sphaerotheca test (cucumber)/protective. Format: in vivo. Particulars: Podosphaera fuliginea, 168 h, cucumber plants, protective spray, evaluation 7 days after inoculation, read-out: Efficacy (%). As for the experimental part:
Sphaerotheca Test (Cucumber)/Protective
(§1) Solvent: 49 parts by weight of N,N-dimethylformamide
(§2) Emulsifier: 1 part by weight of alkylaryl polyglycol ether
To produce a suitable preparation of active compound, 1 part by weight of active compound is mixed with the stated amounts of solvent and emulsifier, and the concentrate is diluted with water to the desired concentration. To test for protective activity, young cucumber plants are sprayed with the preparation of active compound at the stated application rate. 1 day after the treatment, the plants are inoculated with a spore suspension of Sphaerotheca fuliginea. The plants are then placed in a greenhouse at 70% relative air humidity and a temperature of 23° C. Evaluation follows 7 days after the inoculation. 0% means an efficacy which corresponds to that of the control, whereas an efficacy of 100% means that no infection is observed. In this test, the following compounds according to the invention show, at an active compound concentration of 500 ppm, an efficacy of 70% or more: […]

A short description of data set [2]: log P by HPLC on reversed-phase columns (C 18), EEC directive 79/831 Annex V.A8. Format: physicochemical. Particulars: reversed-phase HPLC columns (C 18); method [a]: LC-MS, acidic range pH 2.7, 0.1% aqueous formic acid/acetonitrile, gradient 10% to 95% acetonitrile. As for the experimental part: The log P values were measured according to EEC directive 79/831 Annex V.A8 by HPLC (High Performance Liquid Chromatography) on reversed-phase columns (C 18), using the methods below: [a] The LC-MS determination in the acidic range is carried out at pH 2.7 with 0.1% aqueous formic acid and acetonitrile (contains 0.1% formic acid) as mobile phases; linear gradient from 10% acetonitrile to 95% acetonitrile.

For data set [3], the system named is Alternaria solani. Kind of data set: Alternaria test (tomato)/protective. Format: in vivo. The settings on record: 168 h, tomato plants, protective spray, evaluation 7 days after inoculation, read-out: Efficacy (%). As to the method:
Alternaria Test (Tomato)/Protective
as §1, §2
To produce a suitable preparation of active compound, 1 part by weight of active compound is mixed with the stated amounts of solvent and emulsifier, and the concentrate is diluted with water to the desired concentration. To test for protective activity, young tomato plants are sprayed with the preparation of active compound at the stated application rate. 1 day after the treatment, the plants are inoculated with a spore suspension of Alternaria solani and then remain at 100% rd. humidity and 22° C. for 24 h. The plants then remain at 96% rd. atmospheric humidity and a temperature of 20° C. Evaluation is carried out 7 days after the inoculation. 0% means an efficacy which corresponds to that of the control, whereas an efficacy of 100% means that no infection is observed.
(§3) In this test, the following compounds according to the invention show, at an active compound concentration of 500 ppm, an efficacy of 70% or more: […]

Data set [4] has as its system Leptosphaeria nodorum. Briefly: Leptosphaeria nodorum test (wheat)/protective. Format: in vivo. The settings on record: Parastagonospora nodorum, wheat plants, protective spray, evaluation 7-9 days after inoculation, read-out: Efficacy (%). As to the method: Leptosphaeria nodorum Test (Wheat)/Protective
as §1, §2
To produce a suitable preparation of active compound, 1 part by weight of active compound is mixed with the stated amounts of solvent and emulsifier, and the concentrate is diluted with water to the desired concentration. To test for protective activity, young wheat plants are sprayed with the preparation of active compound at the stated application rate. 1 day after the treatment, the plants are inoculated with an aqueous spore suspension of Leptosphaeria nodorum and then remain at 100% relative atmospheric humidity and 22° C. for 48 h. The plants are then placed in a greenhouse at 90% relative atmospheric humidity and a temperature of 22° C. Evaluation is carried out 7-9 days after the inoculation. 0% means an efficacy which corresponds to that of the control, whereas an efficacy of 100% means that no infection is observed. In this test, the following compounds according to the invention show, at an active compound concentration of 500 ppm, an efficacy of 70% or more: […]

The test system of data set [5] is Venturia inaequalis. Briefly: Venturia test (apple)/protective. Format: in vivo. The settings on record: 240 h, protective spray, evaluation 10 days after inoculation, read-out: Efficacy (%). As for the experimental part: Venturia Test (Apple)/Protective
(§4) Solvents: 24.5 parts by weight of acetone
(§5) • 24.5 parts by weight of dimethylacetamide Emulsifier: 1 part by weight of alkylaryl polyglycol ether
(§6) To produce a suitable preparation of active compound, 1 part by weight of active compound is mixed with the stated amounts of solvent and emulsifier, and the concentrate is diluted with water to the desired concentration. To test for protective activity, young plants are sprayed with the preparation of active compound at the stated application rate. After the spray coating has dried on, the plants are inoculated with an aqueous conidia suspension of the apple scab pathogen Venturia inaequalis and then remain in an incubation cabin at approx. 20° C. and 100% relative air humidity for 1 day. The plants are then placed in the greenhouse at about 21° C. and a relative atmospheric humidity of about 90%. Evaluation follows 10 days after the inoculation. 0% means an efficacy which corresponds to that of the control, whereas an efficacy of 100% means that no infection is observed.
(§7) In this test, the following compounds according to the invention show, at an active compound concentration of 100 ppm, an efficacy of 70% or more: […]

The subject of data set [6] is Uromyces appendiculatus. Kind of data set: Uromyces test (bean)/protective. Particulars: 240 h, protective spray, evaluation 10 days after inoculation, read-out: Efficacy (%). Format: in vivo. As to the method: Uromyces Test (Bean)/Protective
as §4, §5
as §6, with “spore” for “conidia”, “bean rust” for “apple scab”, “Uromyces appendiculatus” for “Venturia inaequalis”, “about” for “approx.”, “atmospheric” for “air”
as §7

Data set [7] has as its system Blumeria graminis fsp. hordei. Kind of data set: Blumeria graminis test (barley)/protective. The class given is in vivo. The settings on record: 168 h, protective spray, evaluation 7 days after inoculation, read-out: Efficacy (%). As to the method: Blumeria graminis Test (Barley)/Protective
(§8) Solvent: 49 parts by weight of N,N-dimethylacetamide
as §2
To produce a suitable preparation of active compound, 1 part by weight of active compound is mixed with the stated amounts of solvent and emulsifier, and the concentrate is diluted with water to the desired concentration. To test for protective activity, young plants are sprayed with the preparation of active compound at the stated application rate. After the spray coating has dried on, the plants are dusted with spores of Blumeria graminis fsp. hordei. The plants are placed in a greenhouse at a temperature of about 18° C. and a relative air humidity of about 80% to promote the development of mildew pustules. Evaluation follows 7 days after the inoculation. 0% means an efficacy which corresponds to that of the control, whereas an efficacy of 100% means that no infection is observed.
as §3

Data set [8] concerns Septoria tritici. Briefly: Septoria tritici test (wheat)/protective. Format: in vivo. The settings on record: Zymoseptoria tritici, 504 h, protective spray, evaluation 21 days after inoculation, read-out: Efficacy (%). As for the experimental part: Septoria tritici Test (Wheat)/Protective
as §8, §2
(§9) To produce a suitable preparation of active compound, 1 part by weight of active compound is mixed with the stated amounts of solvent and emulsifier, and the concentrate is diluted with water to the desired concentration. To test for protective activity, young plants are sprayed with the preparation of active compound at the stated application rate. After the spray coating has dried on, the plants are sprayed with a spore suspension of Septoria tritici. The plants remain in an incubation cabin at 20° C. and 100% relative atmospheric humidity for 48 hours. Thereafter, the plants are placed under a translucent hood at 15° C. and 100% relative air humidity for a further 60 hours. The plants are placed in a greenhouse at a temperature of about 15° C. and a relative atmospheric humidity of about 80%. Evaluation follows 21 days after the inoculation. 0% means an efficacy which corresponds to that of the control, whereas an efficacy of 100% means that no infection is observed.
as §3

Data set [9] has as its system Puccinia triticina. Kind of data set: Puccinia triticina test (wheat)/protective. The class given is in vivo. Particulars: 192 h, protective spray, evaluation 8 days after inoculation, read-out: Efficacy (%). As to the method:
Puccinia triticina Test (Wheat)/Protective
as §8, §2
as §9, with “sprayed with spores with a spore” for “sprayed with a spore”, “suspension of Puccinia triticina. The plants” for “suspension of Septoria tritici. The plants”, “48 hours. The plants” for “48 hours. Thereafter, the plants are placed under a translucent hood at 15° C. and 100% relative air humidity for a further 60 hours. The plants”, “of about 20° C. and” for “of about 15° C. and”, “Evaluation follows 8 days after” for “Evaluation follows 21 days after”
as §3

With `Cc1cc(OCC(O)(c2cncnc2)C(C)(C)C)ccc1SC(F)(F)F` (stereo not drawn) [Compound 32], in data set [1], the pest or weed control at 500 ppm is 95%. In data set [2], the chromatographic logP (usually a lipophilicity value derived from retention on a column) turned out to be 3.04.
On to `CC(C)(Sc1ccc(OC(F)(F)F)cc1)C(C)(O)c1cncnc1` (stereo not drawn) [Compound 10], for which the pest or weed control at 500 ppm in data set [3] and in data set [4] was 100% throughout.
As for `OC(COc1ccc(OC(F)(F)F)cc1)(c1cncnc1)C1(Cl)CC1` (stereo not drawn) [Compound 20], the pest or weed control at 500 ppm is 100% in data set [3], 95% in data set [4] and 75% in data set [1]. The pest or weed control at 100 ppm in [5] was determined as 100%; in data set [6], 98%.
Consider `CC(C)(Oc1ccccc1OC(F)(F)F)C(C)(O)c1cncnc1` (stereo not drawn) [Compound 25], for which, in [3], the pest or weed control at 500 ppm worked out at 90%.
As for `CC#CC(O)(c1cncnc1)C(C)(C)Sc1ccc(SC(F)(F)F)cc1` (stereo not drawn) [Compound 15], the pest or weed control at 500 ppm came out at 94% in data set [3], 95% in [4] and 88% in [1].
For the compound `OC(c1cncnc1)(c1ccc(F)cc1F)C1(Oc2ccc(SC(F)(F)F)cc2)CC1` (stereo not drawn) [Compound 8], the pest or weed control at 500 ppm was 80% in [3] and 100% in data set [1].
Regarding `CC#CC(O)(c1cncnc1)C(C)(C)Oc1cccc(OC(F)(F)F)c1` (stereo not drawn) [Compound 23], the pest or weed control at 500 ppm in data set [3] was found to be 75%; in data set [4] it was 70%; in data set [1], 88%.
As for `CC(C)(Sc1ccc(SC(F)(F)F)cc1)C(C)(O)c1cncnc1` (stereo not drawn) [Compound 11], the pest or weed control at 500 ppm in [3] turned out to be 100%; in [4], 95%.
On to `C=CCC(O)(c1cncnc1)C(C)(C)Sc1ccc(SC(F)(F)F)cc1` (stereo not drawn) [Compound 16], for which the pest or weed control at 500 ppm in data set [3] came out at 100%; in [4], 70%.
`CC(C)C(O)(c1cncnc1)C(C)(C)Oc1ccccc1OC(F)(F)F` (stereo not drawn) [Compound 27]: the pest or weed control at 500 ppm in data set [1] turned out to be 88%.
As for `OC(COc1ccc(SC(F)(F)F)cc1)(c1cncnc1)C1(Cl)CC1` (stereo not drawn) [Compound 21], the pest or weed control at 500 ppm in data set [3] was 95%; in data set [1], 100%.
Turning to `CC(C)(C)C(O)(CSc1ccc(SC(F)(F)F)cc1)c1cncnc1` (stereo not drawn) [Compound 4], the pest or weed control at 500 ppm in data set [3] came to 95%; in data set [4], 70%; in [7], 89%; in [1], 91%; in data set [8], 100%.
As to `CC#CC(O)(c1cncnc1)C(C)(C)Oc1ccc(OC(F)(F)F)cc1` (stereo not drawn) [Compound 14], the pest or weed control at 500 ppm in data set [3] was 94%; in [9], 89%; in data set [4], 100%; in data set [7] it was 100%; in data set [1] it was 95%; in data set [8] it was 90%.
On to `CC(C)(C)C(O)(CCc1ccc(SC(F)(F)F)cc1)c1cncnc1` (stereo not drawn) [Compound 7], for which the values for the pest or weed control at 500 ppm in [3], in [4] and in data set [1] were 94%, 95% and 95%, respectively.
Consider `CC#CC(O)(c1cncnc1)C(C)(C)Sc1ccc(OC(F)(F)F)cc1` (stereo not drawn) [Compound 13], for which the pest or weed control at 500 ppm came to 100% in [3], 95% in [4] and 76% in data set [1].
For `CC(C)(Oc1ccc(OC(F)(F)F)cc1)C(C)(O)c1cncnc1` (stereo not drawn) [Compound 9], the pest or weed control at 500 ppm in [3] amounted to 100%; in data set [9], 100%; in [4] it was 100%; in data set [7] it was 100%; in [1], 95%; in [8], 90%. For the same compound, the pest or weed control at 100 ppm in [5] turned out to be 94%; in data set [6] it was 100%.
`CC(C)C(O)(c1cncnc1)C(C)(C)Oc1cccc(OC(F)(F)F)c1` (stereo not drawn) [Compound 24]: the pest or weed control at 500 ppm was found to be 95% in [3], 80% in data set [4] and 83% in data set [1].
Consider `CC(C)(Oc1cccc(OC(F)(F)F)c1)C(C)(O)c1cncnc1` (stereo not drawn) [Compound 22], for which the pest or weed control at 500 ppm was found to be 100% in data set [3], 100% in [4] and 95% in [1]. Also, in [5], the pest or weed control at 100 ppm turned out to be 94%.
